Assay: Surface tensiometer characterization: critical micelle concentration and surface tension
Type: physicochemical
Conditions: surface tensiometer; FIG. 2
From the text: Dibenzhydryl resorcinol ethoxylates produced in Example 2 were characterized using a surface tensiometer to determine critical micelle concentration and surface tension.

## Dibenzhydryl Resorcinol Ethoxylate
  critical micelle concentration: 4 ppm

— patent publication US20220017444A1, “BENZ[…] SURFACTANTS” (INDORAMA VENTURES OXIDES LLC, priority 2018, published 2022)
